Patent US10555987B2, “GHRH agonists for the treatment of ischemic disorders” (UNIVERSITY OF MIAMI, priority 2012, dated 2020)
Marks after values point to notes of the source that are not given here. Non-standard residues stand in square brackets, D forms with d. Residues, ends and D or L forms follow the SMILES beside them. *: point of attachment. Desaminotyrosyl = O=C(CCc1ccc(O)cc1)*; NMeY = CN[C@@H](Cc1ccc(O)cc1)C(=O)O; Nle = CCCC[C@H](N)C(=O)O; Orn = NCCC[C@H](N)C(=O)O; Abu = CC[C@H](N)C(=O)O; Ava = NCCCCC(=O)O

Columns and labels:
GH release [1] = assay: In vivo endocrine activity, GH release after subcutaneous administration (Table 9); conditions: rat, subcutaneous (s.c.) injection
Procedure: Subcutaneous Administration. Adult male rats were used and anesthetized with pentobarbital (6 mg/100 g, b.w.), by i.p. injection. […] Blood samples were taken from the jugular vein 5, 15 and/or 30 minutes after the injection. The blood samples were centrifuged, plasma was removed and the GH level was measured byELISA. The results are summarized in terms of potency in Table 9.

GH release [2] = assay: GH releasing potency in vivo, subcutaneous administration (Example 14, Table 12); parameters: species or system rat; conditions: s.c.; for Serum GH level at selected time after injection (ng/ml), 0 min / Serum GH level at selected time after injection (ng/ml), 15 min / Serum GH level at selected time after injection (ng/ml), 30 min: male rats, dose 3 μg/kg, mean ± SEM
Procedure: Male Sprague-Dawley rats, weighing 200-250 g, were purchased from Charles River Laboratory (Wilmington, Mass.) and used for experiments. All animal procedures were approved by the Veterans Affairs Animal Care and Use Committee and were conducted in accordance with additional institutional guidelines as well. Briefly, groups of 5-6 animals were used in each experiment. The rats were anesthetized with 50 mg/kg of sodium pentobarbital (Nembutal, Lundbeck Inc., Deerfield, Ill.). Twenty min after inducing anesthesia, GHRH(1-29)NH2, JI-38, or new analogs were injected into the animals intravenously (i.v.) or subcutaneously (s.c.). The peptides were dissolved in 0.01 M acetic acid to get 1 μg/μl stock solution, and then diluted with 5% mannitol. Control rats received 5% mannitol only. Blood samples were collected from the jugular vein at selected times and were used for serum preparation. Concentrations of GH in rat sera were determined by ELISA. The relative potencies of tested peptides were calculated using GHRH(1-29)NH2 and JI-38 for comparison, whose potency was defined as 1. The equivalent dosage of GHRH(1-29)NH2 to reach the same level of serum growth hormone release after injection of the specific tested peptide was determined from a GHRH(1-29)NH2 standard curve using Origin 6.0 software. […] Serum GH was determined using the rat Growth Hormone ELISA kit (ALPCO Diagnostics, Mill Valley, Calif.) according to the manufacturer's instruction. Absorbance at 405 nm was measured by a Victor 3 Multi-label Counter (Perkin-Elmer, Waltham, Md.).

GHRH receptor [3] = target: T1, GHRH receptor (Homo sapiens, UniProt Q02643); assay: Receptor binding in vitro, 125I-labeled [His1,Nle27]-hGHRH(1-32)NH2, membrane receptors of human anterior pituitary cells (Table 14); conditions: for Relative affinity (Binding potency) compared to JI-38: JI-38 = 1; for Relative affinity (Binding potency) compared to hGHRH(1-29): hGHRH(1-29)NH2 = 1
T1 sequence (Q02643 23-423): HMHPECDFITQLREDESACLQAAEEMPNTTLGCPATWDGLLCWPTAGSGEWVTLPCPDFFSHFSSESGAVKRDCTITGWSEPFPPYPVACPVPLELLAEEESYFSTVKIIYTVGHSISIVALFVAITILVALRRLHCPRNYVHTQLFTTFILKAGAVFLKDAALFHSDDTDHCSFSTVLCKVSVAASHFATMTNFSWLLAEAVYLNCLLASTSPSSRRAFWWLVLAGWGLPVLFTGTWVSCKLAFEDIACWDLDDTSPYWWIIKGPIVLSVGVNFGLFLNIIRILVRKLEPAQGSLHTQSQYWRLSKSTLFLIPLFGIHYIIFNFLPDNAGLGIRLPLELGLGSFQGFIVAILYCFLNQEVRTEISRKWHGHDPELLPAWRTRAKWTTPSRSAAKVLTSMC
From the text: Normal human pituitary was purchased from the National Hormone and Peptide Program (UCLA Medical Center, Torrance, Calif.).

GHRH receptor [4] = target: T1, GHRH receptor; assay: GHRH receptor binding, competition with 125I-labeled JV-1-42, human pituitary membrane homogenates (Table 7); parameters: Normal human pituitaries were purchased from the National Hormone and Peptide Program; tissue National Hormone and Peptide Program (A.F. Parlow, Harbor-UCLA Medical Center, Torrance, Calif.); host or cells: normal human pituitary, membrane fraction; conditions: JI-38 = 1, Table 7
From the text: Normal human pituitaries were purchased from the National Hormone and Peptide Program (A.F. Parlow, Los Angeles, County Harbor-UCLA Medical Center, Torrance, Calif.).

Structure (SMILES)	GH releasing potency relative to JI-38 (=1) (GH release [1]; 15 min after)	GH releasing potency relative to JI-38 (=1) (GH release [1]; 30 min after)	Serum GH level at selected time after injection (ng/ml), 0 min (GH release [2]) [ng/mL]	Serum GH level at selected time after injection (ng/ml), 15 min (GH release [2]) [ng/mL]	Serum GH level at selected time after injection (ng/ml), 30 min (GH release [2]) [ng/mL]	Relative potency compared to GHRH(1-29), 15 min (GH release [2])	Relative potency compared to JI-38, 15 min (GH release [2])	Relative potency compared to GHRH(1-29), 30 min (GH release [2])	Relative potency compared to JI-38, 30 min (GH release [2])	Relative affinity (Binding potency) compared to JI-38 (GHRH receptor [3])	Relative affinity (Binding potency) compared to hGHRH(1-29) (GHRH receptor [3])	Relative affinity (Binding potency) vs JI-38 (GHRH receptor [4])	GH-releasing potency after s.c. administration (in words) (GH release [2])
CCCC[C@H](NC(=O)[C@@H](NC(=O)[C@H](CC(=O)O)NC(=O)[C@H](CCC(N)=O)NC(=O)[C@H](CC(C)C)NC(=O)[C@H](CC(C)C)NC(=O)[C@H](CCCN)NC(=O)[C@H](CCCNC(=N)N)NC(=O)[C@H](C)NC(=O)[C@H](CO)NC(=O)[C@H](CC(C)C)NC(=O)[C@H](CCC(N)=O)NC(=O)[C@H](CC)NC(=O)[C@H](CC(C)C)NC(=O)[C@@H](NC(=O)[C@H](CCCN)NC(=O)[C@H](CCCNC(=N)N)NC(=O)[C@H](Cc1ccc(O)cc1)NC(=O)[C@H](CO)NC(=O)[C@H](CCC(N)=O)NC(=O)[C@@H](NC(=O)[C@H](Cc1ccccc1)NC(=O)[C@@H](NC(=O)[C@H](C)NC(=O)[C@H](CC(=O)O)NC(=O)[C@H](C)NC(=O)CCc1ccc(O)cc1)[C@@H](C)CC)[C@@H](C)O)C(C)C)[C@@H](C)CC)C(=O)N[C@@H](CC(=O)O)C(=O)N[C@@H](CCCNC(=N)N)C(=O)NCCCCC(N)=O [Peptide P-22327, [Dat^1, Gln^8, Orn^12, Abu^15, Orn^21, Nle^27, Asp^28, Apa^30]hGHRH(1-30)NH2] (Desaminotyrosyl-ADAIFTQSYR[Orn]VL[Abu]QLSAR[Orn]LLQDI[Nle]DR[Ava]-NH2)	1.15	1.30	31.5 ± 3.4	258.7 ± 31.1	138 ± 27.9	73.5	1.16	126.5	1.16	1.34	3.75	2.18	
CCCC[C@H](NC(=O)[C@@H](NC(=O)[C@H](CC(=O)O)NC(=O)[C@H](CCC(N)=O)NC(=O)[C@H](CC(C)C)NC(=O)[C@H](CC(C)C)NC(=O)[C@H](CCCN)NC(=O)[C@H](CCCNC(=N)N)NC(=O)[C@H](C)NC(=O)[C@H](CO)NC(=O)[C@H](CC(C)C)NC(=O)[C@H](CCC(N)=O)NC(=O)[C@H](CC)NC(=O)[C@H](CC(C)C)NC(=O)[C@@H](NC(=O)[C@H](CCCN)NC(=O)[C@H](CCCNC(=N)N)NC(=O)[C@H](Cc1ccc(O)cc1)NC(=O)[C@H](CO)NC(=O)[C@H](CCC(N)=O)NC(=O)[C@@H](NC(=O)[C@H](Cc1ccccc1)NC(=O)[C@@H](NC(=O)[C@H](C)NC(=O)[C@H](CC(=O)O)NC(=O)[C@@H](C)NC(=O)CCc1ccc(O)cc1)[C@@H](C)CC)[C@@H](C)O)C(C)C)[C@@H](C)CC)C(=O)N[C@@H](CC(=O)O)C(=O)N[C@H](CCCNC(=N)N)C(=O)NC [Peptide P-27401, [Dat^1, D-Ala^2, Gln^8, Orn^12, Abu^15, Orn^21, Nle^27, Asp^28, D-Arg^29]hGHRH(1-29)NH—CH3] (Desaminotyrosyl-[dA]DAIFTQSYR[Orn]VL[Abu]QLSAR[Orn]LLQDI[Nle]D[dR]-NHMe)	0.61	0.73	24.6 ± 5.3	217.9 ± 37.0	204.1 ± 23.7	58.8	0.93	253.4	2.27	1.05	2.94	1.59	significantly higher potencies at 30 minutes than at 15 minutes
CCCC[C@H](NC(=O)[C@@H](NC(=O)[C@H](CC(=O)O)NC(=O)[C@H](CCC(N)=O)NC(=O)[C@H](CC(C)C)NC(=O)[C@H](CC(C)C)NC(=O)[C@H](CCCN)NC(=O)[C@H](CCCNC(=N)N)NC(=O)[C@H](C)NC(=O)[C@H](CO)NC(=O)[C@H](CC(C)C)NC(=O)[C@H](CCC(N)=O)NC(=O)[C@H](CC)NC(=O)[C@H](CC(C)C)NC(=O)[C@@H](NC(=O)[C@H](CCCN)NC(=O)[C@H](CCCNC(=N)N)NC(=O)[C@H](Cc1ccc(O)cc1)NC(=O)[C@H](CO)NC(=O)[C@H](CCC(N)=O)NC(=O)[C@@H](NC(=O)[C@H](Cc1ccccc1)NC(=O)[C@@H](NC(=O)[C@H](C)NC(=O)[C@H](CC(=O)O)NC(=O)[C@H](C)NC(=O)[C@H](Cc1ccc(O)cc1)NC)[C@@H](C)CC)[C@@H](C)O)C(C)C)[C@@H](C)CC)C(=O)N[C@@H](CO)C(=O)N[C@@H](CCCNC(=N)N)C(=O)NC [Peptide P-27405, [N—Me-Tyr^1, Gln^8, Orn^12, Abu^15, Orn^21, Nle^27]hGHRH(1-29)NH—CH3] (H-[NMeY]ADAIFTQSYR[Orn]VL[Abu]QLSAR[Orn]LLQDI[Nle]SR-NHMe)	1.60	1.13	21.8 ± 5.9	227.9 ± 10.5	143.3 ± 6.1	62.3	0.99	135.2	1.21	1.09	3.04	4.03	
CCCC[C@H](NC(=O)[C@@H](NC(=O)[C@H](CC(=O)O)NC(=O)[C@H](CCC(N)=O)NC(=O)[C@H](CC(C)C)NC(=O)[C@H](CC(C)C)NC(=O)[C@H](CCCN)NC(=O)[C@H](CCCNC(=N)N)NC(=O)[C@H](C)NC(=O)[C@H](CO)NC(=O)[C@H](CC(C)C)NC(=O)[C@H](CCC(N)=O)NC(=O)[C@H](CC)NC(=O)[C@H](CC(C)C)NC(=O)[C@@H](NC(=O)[C@H](CCCN)NC(=O)[C@H](CCCNC(=N)N)NC(=O)[C@H](Cc1ccc(O)cc1)NC(=O)[C@H](CO)NC(=O)[C@H](CCC(N)=O)NC(=O)[C@@H](NC(=O)[C@H](Cc1ccccc1)NC(=O)[C@@H](NC(=O)[C@H](C)NC(=O)[C@H](CC(=O)O)NC(=O)[C@H](C)NC(=O)[C@H](Cc1ccc(O)cc1)NC)[C@@H](C)CC)[C@@H](C)O)C(C)C)[C@@H](C)CC)C(=O)N[C@@H](CC(=O)O)C(=O)N[C@@H](CCCNC(=N)N)C(=O)NC [Peptide P-27406, [N—Me-Tyr^1, Gln^8, Orn^12, Abu^15, Orn^21, Nle^27, Asp^28]hGHRH(1-29) NH—CH3] (H-[NMeY]ADAIFTQSYR[Orn]VL[Abu]QLSAR[Orn]LLQDI[Nle]DR-NHMe)	0.47	0.50	21.3 ± 4.8	492.6 ± 21.8	282 ± 17.8	170	2.69*	449.7		2.95	8.22	14.5	significantly higher potencies at 30 minutes than at 15 minutes
